Results reported in ChEMBL document CHEMBL4393741, “Novel epidithiodiketopiperazines as anti-viral zinc ejectors of the Feline Immunodeficiency Virus (FIV) nucleocapsid protein as a model for HIV infection” (Bioorg Med Chem, 2019).

Assays:
[1] = Acute cytotoxicity against cat CRFK cells assessed as decrease in cell viability at 10 uM measured after 24 hrs by MTT assay relative to control; format: cell-based, Felis catus
[2] = Chronic cytotoxicity against cat FL-4 cells assessed as decrease in cell viability measured after 7 days by MTT assay; format: cell-based, Felis catus
[3] = test system: Feline immunodeficiency virus; assay: Antiviral activity against FIV infected in cat FL-4 cells assessed as reduction in viral RNA level measured after 7 days by qRT-PCR analysis; format: functional, organism-based; details: FL-4, 168 h
[4] = Therapeutic index, ratio of CC50 for cat FL-4 cells to EC50 for antiviral activity against FIV infected in cat FL-4 cells; format: toxicity, cell-based; details: read-out: Ratio CC50/EC50
[5] = Aqueous solubility of the compound; format: physicochemical; details: buffer
[6] = Solubility of the compound; format: physicochemical

Row | SMILES | Activity [1] | CC50 at 168 h [2] | EC50 [3] | selectivity ratio [4] | solubility [5] | solubility [6]
1 | CN1C(=O)[C@]2(Cc3ccccc3)SS[C@@]1(CO)C(=O)N2C | 74% | – | – | – | – | –
2 | C=CCN1C(=O)[C@@H]2SS[C@H]1C(=O)N2Cc1ccccc1 (racemic) | 96% | 5100 nM | 2100 nM | 2.4 | – | –
3 | C=CCN1C(=O)[C@@H]2SS[C@@]1(CC=C)C(=O)N2Cc1ccccc1 (racemic) | > 100% | > 100000 nM | > 10000 nM | – | Insoluble | –
4 | O=C1[C@@H]2SS[C@@H](C(=O)N2Cc2ccccc2)N1Cc1ccccc1 (racemic) | > 100% | 4700 nM | 3900 to 4000 nM | 1.2 | – | –
5 | C=CCN1C(=O)[C@@H]2SS[C@@]1(Cc1ccccc1)C(=O)N2Cc1ccccc1 (racemic) | 85% | 720 nM | 110 nM | 6.7 | – | –
6 | C=CCN1C(=O)[C@]2(Cc3ccccc3)SS[C@H]1C(=O)N2Cc1ccccc1 (racemic) | > 100% | 79000 nM | 890 nM | 88 | – | –
7 | CCCCN1C(=O)[C@@H]2SS[C@H]1C(=O)N2Cc1ccccc1 (racemic) | 63% | > 10000 nM | 630 nM | > 16 | – | –
8 | CC(C)N1C(=O)[C@@H]2SS[C@H]1C(=O)N2Cc1ccccc1 (racemic) | 50% | 6500 nM | 1600 nM | 4 | – | –
9 | CN1C(=O)[C@@H]2SS[C@H]1C(=O)N2Cc1ccccc1 (racemic) | > 100% | > 10000 nM | 910 nM | > 11 | – | –
10 | COC(=O)CCCCCN1C(=O)[C@@H]2SS[C@H]1C(=O)N2Cc1ccccc1 (racemic) | > 100% | > 10000 nM | 34 nM | > 300 | – | Soluble
11 | CCOC(=O)CCN1C(=O)[C@@H]2SS[C@H]1C(=O)N2Cc1ccccc1 (racemic) | > 100% | > 10000 nM | 53 nM | > 190 | – | Soluble
12 | CN1C(=O)[C@@]23C[C@]4([C@]56C[C@@]78SS[C@@](CO)(C(=O)N7[C@H]5Nc5ccccc56)N(C)C8=O)c5ccccc5N[C@@H]4N2C(=O)[C@]1(CO)SS3 [CHAETOCIN] | 11% | 3.5 nM | 1.7 nM | 2.1 | – | –
13 | Cc1nnc(C(=O)NC(C)(C)c2nc(C(=O)NCc3ccc(F)cc3)c(O)c(=O)n2C)o1 [RALTEGRAVIR] | > 100% | > 100000 nM | 10 nM | > 10000 | – | –
14 | O=C1[C@H](S)N(Cc2ccccc2)C(=O)[C@H](S)N1Cc1ccccc1 | > 100% | 15000 nM | 1800 nM | – | – | –
15 | CS[C@H]1C(=O)N(Cc2ccccc2)[C@@H](SC)C(=O)N1Cc1ccccc1 (relative stereo) | 96% | > 100000 nM | > 100000 nM | – | – | –
16 | COc1ccc(CN2C(=O)[C@@H]3SS[C@H]2C(=O)N3Cc2ccccc2)cc1 (racemic) | 99% | 5400 nM | 410 nM | – | – | –
17 | C=CCN1C(=O)[C@]2(CC=C)SS[C@@]1(CC=C)C(=O)N2CC=C (racemic) | 99% | 8800 nM | 880 nM | 10 | – | –
18 | CN1C(=O)[C@@H]2SS[C@H]1C(=O)N2C (racemic) | 77% | > 10000 nM | 3000 nM | > 3 | – | Insoluble
19 | C=CC[C@@]12SS[C@@H](C(=O)N1Cc1ccccc1)N(Cc1ccccc1)C2=O (racemic) | > 100% | 6000 nM | 88 nM | 69 | – | –
20 | O=C1[C@@H]2SS[C@@H](C(=O)N2Cc2cccc3ccccc23)N1Cc1ccccc1 (racemic) | > 100% | 7200 nM | 1900 nM | 4 | – | –
21 | CN1C(=O)[C@]23CC4=CC=C[C@H](O)[C@H]4N2C(=O)[C@@]1(CO)SS3 [GLIOTOXIN] | 6.1% | – | – | – | – | –
22 | CCOC(=O)CCCN1C(=O)[C@@H]2SS[C@H]1C(=O)N2Cc1ccccc1 (racemic) | > 100% | 7500 nM | 160 nM | 48 | – | Soluble
23 | O=C1[C@@H]2SS[C@@H](C(=O)N2Cc2cccc(Cl)c2)N1Cc1ccccc1 (racemic) | > 100% | > 100000 nM | 550 nM | > 184 | – | –
24 | Cc1cn([C@H]2C[C@H](N=[N+]=[N-])[C@@H](CO)O2)c(=O)[nH]c1=O [ZIDOVUDINE] | > 100% | > 100000 nM | 5300 nM | – | – | –
